Source: the NIST ThermoML archive (doi:10.1021/je0302304)

Assay: xn = mol fraction of the nth substance listed
Details: 101.32 kPa, Liquid

COCCOCCOCCOCCOC [2,5,8,11,14-pentaoxapentadecane] + CCO
mass density [kg/m3]
Details | 288.15 K | 298.15 K | 308.15 K | 318.15 K
x1 = 0.0045 | 797.9 | 789.4 | 780.7 | 771.9
x1 = 0.0085 | 801.4 | 792.9 | 784.2 | 775.3
x1 = 0.0125 | 804.8 | 796.3 | 787.6 | 778.7
x1 = 0.0165 | 808.2 | 799.6 | 790.9 | 782
x1 = 0.0205 | 811.5 | 802.9 | 794.2 | 785.3
x1 = 0.0305 | 819.5 | 810.8 | 802 | 793.1
x1 = 0.05 | 833.6 | 824.9 | 816.1 | 807.1
x1 = 0.1 | 864.1 | 855.1 | 846.2 | 837.1
x1 = 0.15 | 888 | 878.9 | 869.9 | 860.7
x1 = 0.2 | 907.3 | 898.1 | 889.1 | 879.9
x1 = 0.25 | 923.3 | 914.1 | 905 | 895.7
x1 = 0.3 | 936.6 | 927.4 | 918.2 | 908.9
x1 = 0.35 | 947.9 | 938.6 | 929.5 | 920.2
x1 = 0.4 | 957.6 | 948.3 | 939.2 | 929.8
x1 = 0.45 | 966 | 956.7 | 947.5 | 938.2
x1 = 0.5 | 973.4 | 964.1 | 954.9 | 945.5
x1 = 0.55 | 979.9 | 970.6 | 961.3 | 952
x1 = 0.6 | 985.7 | 976.3 | 967.1 | 957.8
x1 = 0.6499 | 990.9 | 981.5 | 972.3 | 963
x1 = 0.7 | 995.6 | 986.2 | 977 | 967.6
x1 = 0.7498 | 999.8 | 990.4 | 981.2 | 971.9
x1 = 0.7999 | 1003.6 | 994.2 | 985 | 975.6
x1 = 0.8499 | 1007 | 997.7 | 988.4 | 979.1
x1 = 0.8997 | 1010.2 | 1000.9 | 991.6 | 982.4
x1 = 0.9496 | 1013.2 | 1003.8 | 994.6 | 985.3
x1 = 1 | 1016 | 1006.6 | 997.4 | 988.1
